The source of these data is PMC2889824, “Structural Optimization and De Novo Design of Dengue Virus Entry Inhibitory Peptides” (PLoS Neglected Tropical Diseases, 2010).

Read-outs that look alike come from different tables or passages of the source. Where no end group is shown, it is not given here.

Data set [1] concerns DENV-2 strain NG-C. The following applies: cited from earlier work; for DENV inhibitory activity of wild type mimic peptides (in words): previous work; for IC50: previously tested wild type peptides denoted with an asterisk, read-out: IC50 (did not achieve 50% inhibition), previously tested wild type peptides. The source says:
Table 1 Sequences and IC50 values of peptides. | column: IC50 (µM) || We had previously identified several E protein regions where peptides mimicking the E protein sequence might function as inhibitors. […] These included a peptide derived from the domain II fusion sequence (DN80, corresponding to amino acids 96–114 in the DENV-2 E protein) and two overlapping peptides derived from the domain II hinge region (DN57 and DN81, corresponding to amino acids 205–223 and 205–232, respectively). Predictions from crystal structures, [14], [15], as well as the previously confir ...

Data set [2] has as its system DENV-2 strain NG-C. In kind it is cell-based, dengue virus-2 (DENV-2). The following applies: for maximum inhibition: 24 h; for inhibition of DENV-2 infection (in words): DENV-2 NG-C, any concentration tested. As to the method:
LLC-MK2 target cells were seeded at a density of 1×10^5 cells in each well of a 6-well plate 24 h prior to infection. Approximately 200 focus forming units (FFU) of virus were incubated with or without peptide in serum-free DMEM for 1 h at rt. Virus/peptide or virus/control mixtures were allowed to infect confluent target cell monolayers for 1 h at 37°C, with rocking every 15 m, after which time the medium was aspirated and overlaid with fresh DMEM/10% (v/v) FBS containing 0.85% (w/v) Sea-Plaque Agarose (Cambrex Bio Science, Rockland, ME) without rinsing. Cells with agar overlays were incubated at 4°C for 20 m to set the agar. Infected cells were then incubated at 37°C with 5% CO2 for 5 days. Infected cultures were fixed with 10% formalin overnight at 4°C, permeablized with 70% (v/v) ethanol for 20 m, and rinsed with phosphate buffered saline, pH 7.4 (PBS) prior to immunostaining. Virus foci were detected using a specific mouse mAb from hybridoma E60 (obtained from M. Diamond at Washington University), followed by horseradish peroxidase-conjugated goat anti-mouse immunoglobulin (Pierce, Rockford, IL), and developed using AEC chromogen substrate (Dako, Carpinteria, CA). Results are expressed as the average of at least two independent trials with three replicates each. IC50 values were determined using variable slope sigmoidal dose-response curve fits with GraphPad Prism 4.0 software (LaJolla, CA), except for DN81opt, which was determined graphically due to a lack of data points to produce a reasonable curve fit.

For data set [3], the system named is LLC-MK2 cells. Format: cell-based, Macaca mulatta. As for the experimental part: Cytotoxicity of peptides was measured by monitoring mitochondrial reductase activity using the TACS™ MTT cell proliferation assay (R&D Systems, Inc., Minneapolis, MN) according to the manufacturer's instructions. Dilutions of peptides in serum-free DMEM were added to confluent monolayers of LLC-MK2 cells in 96-well plates for 1 h at 37°C, similar to the focus forming inhibition assays, and incubated at 37°C with 5% (v/v) CO2 for 24 h. Absorbance at 560 nm was measured using a Tecan GeniosPro plate reader (Tecan US, Durham, NC).

Data set [4] concerns the target T1, purified, recombinant, 80% truncated DENV-2 S1 E protein (Dengue virus type 2, UniProt P12823).
T1 construct: Purified, recombinant, 80% truncated DENV-2 S1 E protein was obtained from Hawaii Biotechnology; purchased Hawaii Biotechnology (Honolulu, HI)
Kind of data set: biochemical. In kind it is binding, DENV-2 strain S1. The settings on record: for kon: read-out: association rate constant ka; for koff: read-out: dissociation rate constant kd. As for the experimental part: Real time binding assays between peptides and purified DENV-2 S1 E protein were performed using biolayer interferometry on an Octet QK system (Fortebio, Menlo Park, CA). This system monitors interference of light reflected from the surface of a fiber optic sensor to measure the thickness of molecules bound to the sensor surface. Purified, recombinant, 80% truncated DENV-2 S1 E protein was obtained from Hawaii Biotechnology (Honolulu, HI). Peptides were N-terminally biotinylated with a 5∶1 molar ratio of NHS-LC-LC-Biotin (Pierce/ThermoFisher, Rockford, IL) in PBS pH 6.5 at 4°C. Excess biotinylation reagent was removed using Pepclean C-18 spin columns (Pierce/ThermoFisher, Rockford, IL). Biotinylated peptides were coupled to kinetics grade streptavidin high binding biosensors (Fortebio, Menlo Park, CA) at several different concentrations. Sensors coated with peptides were allowed to bind to E protein in PBS with 0.02% (v/v) Tween-20 and 1 mg/ml BSA at several different E protein concentrations. Binding kinetics were calculated using the Octet QK software package, which fit the observed binding curves to a 1∶1 binding model to calculate the association rate constants. E protein was allowed to dissociate by incubation of the sensors in PBS. Dissociation curves were fit to a 1∶1 model to calculate the dissociation rate constants. Binding affinities were calculated as the kinetic dissociation rate constant divided by the kinetic association rate constant.

Data set [5] concerns DENV-2 binding to LLC-MK2 cells. Kind of data set: Virus:cell binding inhibition assay (qRT-PCR). The following applies: virus pre-incubated 1 h 4°C, bound to LLC-MK2 2 h 4°C, washed, compared to control virus without peptide. Format: cell-based, dengue virus-2 (DENV-2). As for the experimental part:
Binding inhibition assays were modified from Thaisomboonsuk, et al.}. Briefly, LLC-MK2 monolayers were rinsed in 4°C DMEM containing 0.8% BSA and 25 mM HEPES, pH 7.5. Virus was incubated at 4°C with peptides, control anti-dengue serum, or heparan sulfate in DMEM/BSA/HEPES for one hour before adding to the monolayers for 2 hours at 4°C. Monolayers were rinsed 3 times with cold DMEM/BSA/HEPES media prior to RNA extraction using the Qiagen RNeasy mini kit (Valencia, CA) per manufacturers instructions. Quantitative, real time, reverse transcriptase polymerase chain reaction (qRT-PCR) was conducted utilizing the Roche Lightcycler RNA Master SYBR Green 1 qRT-PCR kit (Basel, Switzerland), using primers Den_F (TTAGAGGAGACCCCTCCC) and Den_R ([…]) from Chutinimitkul et al.}. and the following cycling conditions: 1 h at 61°C, 30 s at 95°C, followed by 45 cycles of: 5 s at 95°C, 20 s at 61°C, and 30 s at 72°C. Cp values were used to estimate infectious units according to a standard curve. Independent assays were repeated three times, in duplicate or triplicate.
Background: In qPCR the cycle at which signal appears reflects the starting amount.

Where [6] appears, read: FFU reduction, DENV-2 NG-C on LLC-MK2 cells, dashed line = tested, 50% inhibition not achieved, read-out: IC50 (did not achieve 50% inhibition).
Setting [7] is: MTT, confluent LLC-MK2, 24 h post-exposure, any concentration tested, one-way ANOVA, P>0.05.

For the substance “AWLVHRQWFLDLPLPWLPG [DN81wt, previously tested wild type peptide from the domain II hinge region]”, in data set [1], the “DENV inhibitory activity of wild type mimic peptides (in words)” value is “did not show substantial DENV inhibitory activity” and the half-maximal inhibitory concentration (IC50) (in general, the concentration at which inhibition is half-maximal) is greater than 50 µM.

Consider “AWLVHTQWFLDLPLPWLPGADTQGSNWI [DN57wt, previously tested wild type peptide from the DENV-2 E domain II hinge region]”, for which, in data set [1], the “DENV inhibitory activity of wild type mimic peptides (in words)” value is “did not show substantial DENV inhibitory activity” and the IC50 was greater than 50 µM.

Consider “EWSKHREGRWHTALTGATEI [1OAN3, de novo designed peptide, E protein region 251–270]”, for which the IC50 in data set [2] (setting [6]) is greater than 50 µM.

Take FWFTLIKTQAKQPARYRRFC [1OAN1]: in data set [2] (-2 strain NG-C, 1 h), the IC50 turned out to be 7 ± 4 µM. Besides, the maximum inhibition in data set [2] (-2 strain NG-C, 50 µM) was 99%. In addition, the cellular toxicity result in data set [3] (setting [7]) is listed as “not toxic at any concentration tested”. In data set [4], the Kd (commonly the free concentration of one partner at which half of the binding sites on the other are occupied at equilibrium, for simple one-to-one binding) is 0.45 µM; the kon is 3900 M⁻¹ s⁻¹; the koff is 0.0016 s⁻¹.

Consider MVIVQHQWMQIMRWPWQPE [DN80opt], for which the IC50 in data set [2] (setting [6]) is greater than 50 µM.

With “QQCFRFPALRKKATYTRFWI [1OAN1-scram, scrambled version of 1OAN1 of identical composition]”, in data set [2] (setting [6]), the IC50 is greater than 50 µM. For the same substance, the “inhibition of DENV-2 infection (in words)” value in data set [2] (FFU reduction) is recorded as “did not inhibit infection by DENV-2 at any concentration tested”. The cellular toxicity result in data set [3] (setting [7]) is listed as “not toxic at any concentration tested”.

As for RQMRAWGQDYQHGGMGYSC [DN81opt], it took 36 ± 6 µM to reach half-maximal inhibition in data set [2] (-2 strain NG-C, 1 h) (IC50). For the same substance, the maximum inhibition in data set [2] (-2 strain NG-C, 50 µM) is 57%.

The substance RWMVWRHWFHRLRLPYNPGKNKQNQQWP [DN57opt] displayed an IC50 in data set [2] (-2 strain NG-C, 1 h) of 8 ± 1 µM. Besides, the maximum inhibition in data set [2] (-2 strain NG-C, 20 µM) turned out to be 97%. Also, the cellular toxicity entry in data set [3] is “mildly toxic”. Also, in data set [4], the Kd amounted to 1.2 µM, the kon came out at 800 M⁻¹ s⁻¹ and the koff was determined as 0.00077 s⁻¹.

For the substance “RWRHLKKMQRLQPRNPNWPGQFWVHYNW [DN57opt-scram, scrambled version of DN57opt of identical composition]”, in data set [2] (setting [6]), the concentration for half-maximal inhibition (IC50) was greater than 50 µM. In data set [2] (FFU reduction), the “inhibition of DENV-2 infection (in words)” value is reported as “did not display inhibition at any concentration tested”. The cellular toxicity entry in data set [3] (setting [7]) was “not toxic at any concentration tested”.

On to “WHTVEPIVTEKDRPVNYEWE [1OAN4, de novo designed peptide, E protein region 351–370]”, for which the half-maximal inhibitory concentration (IC50) in data set [2] (setting [6]) was greater than 50 µM.

On to “YPENLEYRVYITPHPGEEHH [1OAN2, de novo designed peptide, E protein region 131–150]”, for which the half-inhibitory concentration (IC50) in data set [2] (setting [6]) is greater than 50 µM.

Consider heparan sulfate, for which the “virus:cell binding” value in data set [5] is listed as “reduced cell binding”.
